Results on 2 compounds are retold here after patent US20250011329A1, “SUBSTITUTED PIPERIDINYL-METHYLPURINE PYRIDINES AND RELATED COMPOUNDS AND THEIR USE IN TREATING DISEASES AND CONDITIONS” (K36 Therapeutics, Inc., priority 2023, published 2025).

In experiment [1] the target is recombinant human NSD2 (Homo sapiens (Human), UniProt O96028). The experiment can be described thus: NSD2 inhibitory assay (modified RBC HotSpot HMT Assay). Format: biochemical. Conditions: 2 nM NSD2, chicken oligonucleosomes 0.05 mg/ml, 3H-SAM 1 μM, 1 hour at 30° C. On the procedure:
Exemplary compounds were tested for NSD2 inhibitory activity using a modified RBC HotSpot HMT Assay.
A reaction mixture was prepared by adding oligonucleosomes from Chicken (0.05 mg/ml) to freshly prepared reaction buffer containing 50 mM Tris-HCl (pH 8.5), 50 mM NaCl, 5 mM MgCl2, 0.01% Brij35, 1 mM DTT, and 1% DMSO followed by the addition of recombinant human NSD2, (amino acids 2-end) with N-terminal His tag (2 nM; GenBank Accession No. NM_001042424; MW=155.5 kDa; expressed in Sf9 insect cells) and gentle mixing. The test compounds were diluted in DMSO, added to the reaction mixture in nanoliter amounts by using Acoustic Technology (Echo 550, LabCyte Inc. Sunnyvale, CA) and incubated for 20 minutes at room temperature. The reaction was initiated by the addition of S-Adenosyl-L-[methyl-^3H]methionine (3H-SAM; 1 μM), and the mixture was incubated for 1 hour at 30° C. The reaction mixture was delivered to filter paper and the methylated substrate was quantified by scintillation counting. Data analysis was performed using Excel and GraphPad Prism software for IC50 curve fits. For additional information on the histone methyltransferase assay, see, for example, Horiuchi K Y, et al., “Assay Development for Histone Methyltransferases,” Assay Drug Dev Technol. 2013 May; 11(4):227-36.

Experiment [2] concerns the target recombinant human NSD1 (Homo sapiens, UniProt Q96L73). Nature of the experiment: NSD1 inhibitory assay. Type of experiment: biochemical. Conditions: 2 nM NSD1, chicken oligonucleosomes 0.05 mg/ml, 3H-SAM 1 μM, 1 hour at 30° C. As to the method:
An exemplary compound was tested for NSD1 inhibitory activity.
A reaction mixture was prepared by adding oligonucleosomes from Chicken (0.05 mg/ml) to freshly prepared reaction buffer containing 50 mM Tris-HCl (pH 8.5), 50 mM NaCl, 5 mM MgCl2, 0.01% Brij35, 1 mM DTT, and 1% DMSO followed by the addition of recombinant human NSD1 (amino acids 2-end) with N-terminal His tag (2 nM) and gentle mixing. The test compounds were diluted in DMSO, added to the reaction mixture in nanoliter amounts by using Acoustic Technology (Echo 550, LabCyte Inc. Sunnyvale, CA) and incubated for 20 minutes at room temperature. The reaction was initiated by the addition of S-Adenosyl-L-[methyl-^3H] methionine (3H-SAM; 1 μM), and the mixture was incubated for 1 hour at 30° C. The reaction mixture was delivered to filter paper and the methylated substrate was quantified by scintillation counting. Data analysis was performed using Excel and GraphPad Prism software for IC50 curve fits. For additional information on the histone methyltransferase assay, see, for example, Horiuchi K Y, et al., “Assay Development for Histone Methyltransferases,” Assay Drug Dev Technol. 2013 May; 11(4):227-36.

Sequence of recombinant human NSD2 (O96028 2-1365 limits assumed): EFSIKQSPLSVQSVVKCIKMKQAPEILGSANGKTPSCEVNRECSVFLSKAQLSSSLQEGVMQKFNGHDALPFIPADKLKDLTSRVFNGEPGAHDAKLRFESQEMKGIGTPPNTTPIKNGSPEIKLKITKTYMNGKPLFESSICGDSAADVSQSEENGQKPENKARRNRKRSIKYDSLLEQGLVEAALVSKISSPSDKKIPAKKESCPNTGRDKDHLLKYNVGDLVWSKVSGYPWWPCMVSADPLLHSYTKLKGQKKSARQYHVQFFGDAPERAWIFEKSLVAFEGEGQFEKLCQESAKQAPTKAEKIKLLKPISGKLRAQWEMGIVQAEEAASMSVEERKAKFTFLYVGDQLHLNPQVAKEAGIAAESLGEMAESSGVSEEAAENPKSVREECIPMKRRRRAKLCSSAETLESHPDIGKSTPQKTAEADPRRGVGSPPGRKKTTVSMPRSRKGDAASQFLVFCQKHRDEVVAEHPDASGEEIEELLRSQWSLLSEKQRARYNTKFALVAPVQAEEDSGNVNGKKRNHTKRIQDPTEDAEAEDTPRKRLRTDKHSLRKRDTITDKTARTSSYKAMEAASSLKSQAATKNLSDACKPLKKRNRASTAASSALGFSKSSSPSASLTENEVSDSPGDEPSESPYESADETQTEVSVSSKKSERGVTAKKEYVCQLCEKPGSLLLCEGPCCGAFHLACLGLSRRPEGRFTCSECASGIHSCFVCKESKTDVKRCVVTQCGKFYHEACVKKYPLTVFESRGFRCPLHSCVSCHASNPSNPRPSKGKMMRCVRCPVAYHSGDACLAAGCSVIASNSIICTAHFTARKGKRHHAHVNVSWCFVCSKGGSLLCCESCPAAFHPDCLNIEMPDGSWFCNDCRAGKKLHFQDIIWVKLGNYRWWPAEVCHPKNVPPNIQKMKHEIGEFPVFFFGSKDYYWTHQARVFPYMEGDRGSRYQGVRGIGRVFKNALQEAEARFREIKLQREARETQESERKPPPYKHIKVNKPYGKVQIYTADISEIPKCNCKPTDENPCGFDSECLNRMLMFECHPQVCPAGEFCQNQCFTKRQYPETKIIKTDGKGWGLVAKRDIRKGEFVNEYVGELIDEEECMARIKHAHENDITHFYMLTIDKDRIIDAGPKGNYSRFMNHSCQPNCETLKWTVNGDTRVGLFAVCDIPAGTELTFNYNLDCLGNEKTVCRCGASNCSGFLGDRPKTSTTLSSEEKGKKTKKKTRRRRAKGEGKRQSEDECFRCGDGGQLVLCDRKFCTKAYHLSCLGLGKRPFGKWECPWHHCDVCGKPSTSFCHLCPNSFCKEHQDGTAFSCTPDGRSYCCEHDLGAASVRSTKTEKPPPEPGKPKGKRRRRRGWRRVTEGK

Turning to `COC(=O)COc1cc(F)c(-c2cc(Cn3cnc4c(N)ncnc43)c(N3CCC[C@](N)([C@H](O)C(F)F)C3)cn2)cc1F` [III-35, methyl 2-(4-(5-((R)-3-amino-3-((S)-2,2-difluoro-1-hydroxyethyl)piperidin-1-yl)-4-((6-amino-9H-purin-9-yl)methyl)pyridin-2-yl)-2,5-difluorophenoxy)acetate], the IC50 (commonly the concentration that inhibits the measured activity by half) in experiment [1] was under 2 nM; in experiment [2], under 1 nM.
On to `Nc1ncnc2c1ncn2Cc1cc(-c2cc(F)c(O)cc2F)ncc1N1CCC[C@](N)([C@H](O)C(F)F)C1` [Compound J, 4-(5-((R)-3-amino-3-((S)-2,2-difluoro-1-hydroxyethyl)piperidin-1-yl)-4-((6-amino-9H-purin-9-yl)methyl)pyridin-2-yl)-2,5-difluorophenol], for which the IC50 in experiment [1] is 2 to 20 nM.
